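In this assay, cells in 96-well plates receive the compound at five concentrations for 48 hours. Endpoints are linearly interpolated between the surrounding concentrations. Abbreviation: GI50, concentration required for 50% inhibition of growth. TGI: total growth inhibition.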
Columns and labels:
Test in all cases: NCI-60 cell line screen, 48 h
UACC-257 melanoma = system: UACC-257 melanoma
SNB-75 CNS = system: SNB-75 CNS
M14 melanoma = system: M14 melanoma
CCRF-CEM leukemia = system: CCRF-CEM leukemia
SK-MEL-2 melanoma = system: SK-MEL-2 melanoma
SK-OV-3 ovarian = system: SK-OV-3 ovarian
UACC-62 melanoma = system: UACC-62 melanoma
ACHN renal = system: ACHN renal
HOP-92 NSCLC = system: HOP-92 NSCLC
NCI-H23 lung = system: NCI-H23 lung
OVCAR-3 ovarian = system: OVCAR-3 ovarian
OVCAR-5 ovarian = system: OVCAR-5 ovarian
SK-MEL-28 melanoma = system: SK-MEL-28 melanoma
A549 NSCLC = system: A549 NSCLC
BT-549 breast = system: BT-549 breast
MCF7 breast = system: MCF7 breast
SR leukemia = system: SR leukemia
CAKI-1 renal = system: CAKI-1 renal
HCT-116 colon = system: HCT-116 colon
HS 578T breast = system: HS 578T breast
EKVX NSCLC = system: EKVX NSCLC
SK-MEL-5 melanoma = system: SK-MEL-5 melanoma
SF-268 CNS = system: SF-268 CNS
UO-31 renal = system: UO-31 renal
COLO 205 colon = system: COLO 205 colon
LOX IMVI melanoma = system: LOX IMVI melanoma
U251 CNS = system: U251 CNS
KM12 colon = system: KM12 colon
K-562 leukemia = system: K-562 leukemia

Compound: CNC(=O)c1cc(Oc2ccc3nc(NC(=O)Nc4cccc(OC(F)(F)F)c4)sc3c2)ccn1
- GI50 (UACC-257 melanoma): 5.89 µM
- TGI (UACC-257 melanoma): > 100 µM
- GI50 (SNB-75 CNS): 2.34 µM
- TGI (SNB-75 CNS): 5.52 µM
- GI50 (M14 melanoma): 5.76 µM
- TGI (M14 melanoma): > 100 µM
- GI50 (CCRF-CEM leukemia): 9.07 µM
- TGI (CCRF-CEM leukemia): > 100 µM
- GI50 (SK-MEL-2 melanoma): 2.51 µM
- TGI (SK-MEL-2 melanoma): 8.12 µM
- GI50 (SK-OV-3 ovarian): 3 µM
- TGI (SK-OV-3 ovarian): 6.83 µM
- GI50 (UACC-62 melanoma): 2.07 µM
- TGI (UACC-62 melanoma): 13.3 µM
- GI50 (ACHN renal): 2.32 µM
- TGI (ACHN renal): 7.26 µM
- GI50 (HOP-92 NSCLC): 1.66 µM
- TGI (HOP-92 NSCLC): 4.46 µM
- GI50 (NCI-H23 lung): 2.91 µM
- TGI (NCI-H23 lung): 11.9 µM
- GI50 (OVCAR-3 ovarian): 3.27 µM
- TGI (OVCAR-3 ovarian): > 100 µM
- GI50 (OVCAR-5 ovarian): 5.58 µM
- TGI (OVCAR-5 ovarian): > 100 µM
- GI50 (SK-MEL-28 melanoma): 2.66 µM
- TGI (SK-MEL-28 melanoma): > 100 µM
- GI50 (A549 NSCLC): 2.69 µM
- TGI (A549 NSCLC): > 100 µM
- GI50 (BT-549 breast): 3.21 µM
- TGI (BT-549 breast): 9.02 µM
- GI50 (MCF7 breast): 8.31 µM
- TGI (MCF7 breast): > 100 µM
- GI50 (SR leukemia): > 100 µM
- TGI (SR leukemia): > 100 µM
- GI50 (CAKI-1 renal): 2.01 µM
- TGI (CAKI-1 renal): 4.72 µM
- GI50 (HCT-116 colon): 4.67 µM
- TGI (HCT-116 colon): > 100 µM
- GI50 (HS 578T breast): 2.29 µM
- TGI (HS 578T breast): 7.09 µM
- GI50 (EKVX NSCLC): 3.56 µM
- TGI (EKVX NSCLC): > 100 µM
- GI50 (SK-MEL-5 melanoma): 3.08 µM
- TGI (SK-MEL-5 melanoma): > 100 µM
- GI50 (SF-268 CNS): 4.3 µM
- TGI (SF-268 CNS): 89 µM
- GI50 (UO-31 renal): 3.93 µM
- TGI (UO-31 renal): > 100 µM
- GI50 (COLO 205 colon): 5.43 µM
- TGI (COLO 205 colon): > 100 µM
- GI50 (LOX IMVI melanoma): 4.15 µM
- TGI (LOX IMVI melanoma): 23.6 µM
- GI50 (U251 CNS): 2.43 µM
- TGI (U251 CNS): 6.27 µM
- GI50 (KM12 colon): 0.809 µM
- TGI (KM12 colon): > 100 µM
- GI50 (K-562 leukemia): 5.51 µM

Source: PubChem BioAssay (NCI)
